For 19 compounds, IC50 results are on record in patent publication US20230219978A1, “COMPOUND HAVING MACROCYCLIC STRUCTURE AND USE THEREOF” (SCINNOHUB PHARMACEUTICAL CO., LTD, priority 2020, published 2023).

Common to all, as to assay type: biochemical
One experiment addresses T1, RET wt (Homo sapiens, UniProt P07949).
T1 construct: purchased Carna 08-159
The experiment in a line: In vitro kinase activity assay (mobility shift assay), RET wild type. Particulars: ATP 16 μM, reaction time 60 min. The method, then: (§1) The IC50 (half inhibitory concentration) values of the compounds were used as an indicator to evaluate the inhibitory effect of the compound on RET wild-type, RET mutant, TRKa, SRC, BTK and/or mutated BTK kinase.
(§2) Using the method of Mobility shift assay, the compounds were tested for inhibitory activity against the following kinases: RET wild type, RET mutant, TRKa, SRC, BTK and/or mutated BTK. The initial concentration of the test compound was 1000 nM, 3-fold dilution, 10 concentrations, detected in a well for each concentration.
(§3) 20 mM hydroxyethylpiperazineethanesulfonic acid (Hepes) (pH 7.5) buffer, 10 mM MgCl2, 1 mM ethylene glycol bis(aminoethyl ether)tetraacetic acid (EGTA), 0.02% polyoxyethylene lauryl ether (Brij35), 0.02 mg/ml […] (BSA), 0.1 mM Na3VO4, 2 mM dithiothreitol (DTT), 1% DMSO.
(§4) The test compounds were dissolved in 100% dimethyl sulfoxide (DMSO) system, and prepared as 10 mM for use, and stored in a nitrogen cabinet away from light.
(§5) • (1) Preparing 1× kinase reaction buffer. • (2) Preparation of compound concentration gradient: the initial concentration of the compounds was 1000 nM, which was diluted as 100-fold final concentration of solution in 100% dimethyl sulfoxide (DMSO) in a 384-well plate. The compound was accurately 3-fold diluted with the kinase buffer solution, 10 concentrations in total, and the final concentration was 0.0508 nM. The 100-fold final concentration of solution in 100% dimethyl sulfoxide (DMSO) was obtained by dilution in 384 source plate. The liquid separator Echo 550 was used to transfer 250 nl of 100-fold final concentration of compound to the target 384 well plate. 250 nl of DMSO was added to the positive and negative control wells. • (3) 2.5-fold final concentration of kinase solution was prepared by the 1× kinase buffer. • (4) 10 4, of 2.5-fold final concentration of kinase solution was added to the compound well and the positive control well, respectively; 10 4, of 1× kinase buffer was added to the negative control well. • (5) After centrifuging at 1000 rpm for 30 second, the reaction plate was shaken and mixed, followed by incubation at room temperature for 10 min. • (6) a mixed solution of 25/15-fold final concentration of adenosine triphosphate (ATP) and kinase substrate was prepared by 1× kinase buffer. • (7) The mixed solution (15 μL) of 25/15-fold final concentration of adenosine triphosphate (ATP) and substrate was added to initiate the reaction. • (8) 384-well plate was centrifuged at 1000 rpm for 30 second, shaken and mixed well, and then incubated at room temperature for 30-240 min. • (9) After stopping the kinase reaction, the plate was centrifugated at 1000 rpm for 30 second, shaken and mixed well. • (10)The conversion rate was read with Caliper EZ Reader.
(§6) wherein Conversion%_sample is the conversion rate reading of the sample; Conversion%_min: the mean value of negative control wells, representing the conversion rate reading of wells without enzymes; Conversion%_max: the mean value of positive control wells, representing the conversion rate reading of wells without compound inhibition.
(§7) The log value of concentration was taken as the X axis, and the percentage inhibition rate was taken as the Y axis. Graphpad 6.0 analysis software was used to fit the dose-response curve, so as to obtain the IC50 value of each compound on the enzyme activity

The target in a further experiment is T2, TRKa (Homo sapiens, UniProt P04629).
T2 construct: purchased Carna 08-186
T2 sequence (P04629 33-796): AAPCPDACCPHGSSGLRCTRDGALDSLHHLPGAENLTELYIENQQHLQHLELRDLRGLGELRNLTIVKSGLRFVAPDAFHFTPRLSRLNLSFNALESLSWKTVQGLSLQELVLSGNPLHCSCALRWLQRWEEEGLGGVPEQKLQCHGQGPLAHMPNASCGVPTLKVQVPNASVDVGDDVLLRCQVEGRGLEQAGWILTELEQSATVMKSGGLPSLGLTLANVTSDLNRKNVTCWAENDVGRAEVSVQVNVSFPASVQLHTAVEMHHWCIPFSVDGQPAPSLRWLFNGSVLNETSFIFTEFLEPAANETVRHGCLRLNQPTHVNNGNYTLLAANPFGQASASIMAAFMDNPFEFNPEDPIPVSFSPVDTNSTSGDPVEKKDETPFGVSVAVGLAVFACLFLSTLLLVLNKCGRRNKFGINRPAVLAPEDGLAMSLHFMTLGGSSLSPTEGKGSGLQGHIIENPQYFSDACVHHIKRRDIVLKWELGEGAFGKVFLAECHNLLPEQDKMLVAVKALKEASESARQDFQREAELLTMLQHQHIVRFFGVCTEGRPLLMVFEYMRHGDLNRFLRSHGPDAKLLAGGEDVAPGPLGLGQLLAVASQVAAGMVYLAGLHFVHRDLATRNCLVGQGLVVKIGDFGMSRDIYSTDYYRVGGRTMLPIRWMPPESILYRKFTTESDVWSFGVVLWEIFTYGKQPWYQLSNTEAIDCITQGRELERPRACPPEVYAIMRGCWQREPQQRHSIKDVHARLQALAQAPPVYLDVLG
The experiment in a line: In vitro kinase activity assay (mobility shift assay), TRKa. Particulars: ATP 47.8 μM, reaction time 30 min. Here is the method:
as §1, §2, §3, §4, §5, §6, §7

The target of the next experiment is T3, BTK (Homo sapiens, UniProt Q06187).
T3 construct: purchased Carna 08-180
T3 sequence (Q06187 whole entry): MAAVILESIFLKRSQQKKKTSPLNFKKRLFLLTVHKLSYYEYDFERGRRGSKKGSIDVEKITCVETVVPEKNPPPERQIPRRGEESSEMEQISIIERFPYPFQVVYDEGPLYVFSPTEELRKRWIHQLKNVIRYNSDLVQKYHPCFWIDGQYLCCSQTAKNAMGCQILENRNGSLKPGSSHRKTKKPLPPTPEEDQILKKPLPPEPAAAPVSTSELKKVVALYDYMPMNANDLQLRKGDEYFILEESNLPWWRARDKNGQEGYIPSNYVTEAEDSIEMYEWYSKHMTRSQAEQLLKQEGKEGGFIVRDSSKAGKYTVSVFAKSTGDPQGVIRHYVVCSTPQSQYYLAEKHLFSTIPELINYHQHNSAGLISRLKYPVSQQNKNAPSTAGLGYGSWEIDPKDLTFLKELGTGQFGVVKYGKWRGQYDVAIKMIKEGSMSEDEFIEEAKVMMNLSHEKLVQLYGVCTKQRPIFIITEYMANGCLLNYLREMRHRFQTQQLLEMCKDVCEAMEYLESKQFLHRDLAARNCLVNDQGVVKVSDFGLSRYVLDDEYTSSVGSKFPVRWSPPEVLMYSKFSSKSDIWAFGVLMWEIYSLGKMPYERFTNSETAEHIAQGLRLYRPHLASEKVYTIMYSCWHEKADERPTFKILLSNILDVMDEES
The experiment in a line: In vitro kinase activity assay (mobility shift assay), BTK. To be noted: ATP 71 μM, reaction time 30 min. Here is the method: as §1, §2, §3, §4, §5, §6, §7

The next experiment deals with T4, BTK C481S (Homo sapiens, UniProt Q06187, C481S).
T4 construct: purchased Carna 08-547
T4 sequence (Q06187 whole entry C481S): as the sequence (Q06187 whole entry) above, with C481S counted along it
The experiment in a line: In vitro kinase activity assay (mobility shift assay), BTK C481S. Particulars: ATP 90 μM, reaction time 30 min. The method, then:
as §1, §2, §3, §4, §5, §6, §7

pIC50: −log10 of the molar value.

T1 sequence (P07949 29-1114): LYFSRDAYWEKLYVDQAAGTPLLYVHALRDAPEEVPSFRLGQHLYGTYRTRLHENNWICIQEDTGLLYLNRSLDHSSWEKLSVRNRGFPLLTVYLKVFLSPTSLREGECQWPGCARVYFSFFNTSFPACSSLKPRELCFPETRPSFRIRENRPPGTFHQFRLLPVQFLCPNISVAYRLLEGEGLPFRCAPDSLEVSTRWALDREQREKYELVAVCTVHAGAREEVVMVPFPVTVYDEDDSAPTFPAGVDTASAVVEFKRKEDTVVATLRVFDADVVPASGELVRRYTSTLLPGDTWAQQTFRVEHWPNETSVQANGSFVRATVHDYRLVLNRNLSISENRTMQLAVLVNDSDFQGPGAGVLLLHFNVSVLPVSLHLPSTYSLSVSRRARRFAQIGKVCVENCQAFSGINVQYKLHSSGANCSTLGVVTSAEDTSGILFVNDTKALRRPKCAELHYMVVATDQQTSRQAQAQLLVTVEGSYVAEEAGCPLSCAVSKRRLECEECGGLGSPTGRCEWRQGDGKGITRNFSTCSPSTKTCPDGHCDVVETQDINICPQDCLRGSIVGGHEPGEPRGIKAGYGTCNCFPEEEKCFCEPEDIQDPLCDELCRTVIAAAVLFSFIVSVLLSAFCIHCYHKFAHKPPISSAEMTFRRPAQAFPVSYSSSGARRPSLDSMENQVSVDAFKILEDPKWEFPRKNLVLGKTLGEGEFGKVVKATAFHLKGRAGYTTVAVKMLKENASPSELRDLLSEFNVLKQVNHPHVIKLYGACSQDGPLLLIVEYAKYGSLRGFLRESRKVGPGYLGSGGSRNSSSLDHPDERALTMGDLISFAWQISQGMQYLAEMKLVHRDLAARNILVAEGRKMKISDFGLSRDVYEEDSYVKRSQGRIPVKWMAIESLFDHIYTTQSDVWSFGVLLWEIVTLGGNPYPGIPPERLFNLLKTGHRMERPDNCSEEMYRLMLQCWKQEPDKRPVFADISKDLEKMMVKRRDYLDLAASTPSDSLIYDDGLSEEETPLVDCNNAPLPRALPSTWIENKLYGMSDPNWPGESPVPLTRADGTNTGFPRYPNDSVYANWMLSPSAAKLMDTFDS

In the case of `C[C@H]1CNC(=O)c2cnn3cc(-c4c(F)cccc4F)c(nc23)NCc2cc(F)cnc2O1` [Compound 22, (S, 1^3E, 1^4E)-1^6-(2,6-difluorophenyl)-4^5-fluoro-6-methyl-5-oxa-2,8-diaza-1(5,3)-pyrazolo[1,5-a]pyrimidin-4(3,2)-pyridinacyclononaphan-9-one], the pIC50 was 7.68 at RET wt and 6.52 at TRKa.
In the same order, the values of `C[C@H]1CNC(=O)c2cnn3cc(O)c(nc23)NCc2cc(F)cnc2O1` [Compound 2, (S, 1^3E, 1^4E)-4^5-fluoro-6-methyl-1^6-hydroxy-5-oxa-2,8-diaza-1(5,3)-pyrazolo[1,5-a]pyrimidina-4(3,2)-pyridinacyclononaphan-9-one] are 5.28 and 7.34.
Regarding `C[C@H]1CNC(=O)c2cnn3cc(-c4ccc(Cl)cc4Cl)c(nc23)NCc2cc(F)cnc2O1` [Compound 21, (S, 1^3E, 1^4E)-1^6-(2,4-dichlorophenyl)-4^5-fluoro-6-methyl-5-oxa-2,8-diaza-1(5,3)-pyrazolo[1,5-a]pyrimidin-4(3,2)-pyridinacyclononaphan-9-one], the pIC50 on RET wt is 8.23; at TRKa it was under 5.00.
In the same order, the values of `C[C@H]1CNC(=O)c2cnn3cc(-c4cccc(F)c4)c(nc23)NCc2cc(F)cnc2O1` [Compound 7, (S, 1^3E, 1^4E)-1^6-(3-fluorophenyl)-4^5-fluoro-6-methyl-5-oxa-2,8-diaza-1(5,3)-pyrazolo[1,5-a]pyrimidina-4(3,2)-pyridinacyclononaphan-9-one] are 8.00 and 5.73.
The like results for `C[C@H]1CNC(=O)c2cnn3cc(C4CC4)c(nc23)NCc2cc(F)cnc2O1` [Compound 23, (S, 1^3E, 1^4E)-1^6-cyclopropyl-4^5-fluoro-6-methyl-5-oxa-2,8-diaza-1(5,3)-pyrazolo[1,5-a]pyrimidin-4(3,2)-pyridinacyclononaphan-9-one] were, in that order, 6.35 and under 5.00.
In the same order, the values of `O=C1N[C@H]2C[C@H](C2)Oc2ncc(F)cc2CNc2nc3c1cnn3cc2-c1ccccc1` [Compound 29] are 7.70 and under 5.00.
For the compound `C[C@H]1CNC(=O)c2cnn3cc(-c4ccccc4C(F)(F)F)c(nc23)NCc2cc(F)cnc2O1` [Compound 16, (S, 1^3E, 1^4E)-1^6-(2-trifluoromethylphenyl)-4^5-fluoro-6-methyl-5-oxa-2,8-diaza-1(5,3)-pyrazolo[1,5-a]pyrimidina-4(3,2)-pyridinacyclononaphan-9-one], the pIC50 on RET wt is 6.27; at TRKa it was 5.86.
Regarding `C[C@H]1CNC(=O)c2cnn3c(N)c(-c4ccc(Cl)cc4)c(nc23)NCc2cc(F)cnc2O1` [Compound 50, (S, 1^3E, 1^4E)-1^7-amino-1^6-(4-chlorophenyl)-4^5-fluoro-6-methyl-5-oxa-2,8-diaza-1(5,3)-pyrazolino[1,5-a]pyrimidin-4(3,2)-pyridinacyclononaphan-9-one], the pIC50 at RET wt was 9.08; at BTK, 8.74; at BTK C481S, 8.83.
As for `Cc1ccc(-c2cn3ncc4c3nc2NCc2cc(F)cnc2O[C@@H](C)CNC4=O)cc1` [Compound 11, (S, 1^3E, 1^4E)-1^6-(4-methylphenyl)-4^5-fluoro-6-methyl-5-oxa-2,8-diaza-1(5,3)-pyrazolo[1,5-a]pyrimidina-4(3,2)-pyridinacyclononaphan-9-one], the figures for the negative logarithm of the IC50 (pIC50) on RET wt and at TRKa were 7.82 and 6.03, respectively.
In the same order, the values of `C[C@H]1CNC(=O)c2cnn3cc(-c4ccc(C(F)(F)F)cc4)c(nc23)NCc2cc(F)cnc2O1` [Compound 14, (S, 1^3E, 1^4E)-1^6-(4-trifluoromethylphenyl)-4^5-fluoro-6-methyl-5-oxa-2,8-diaza-1(5,3)-pyrazolo[1,5-a]pyrimidina-4(3,2)-pyridinacyclononaphan-9-one] are 6.90 and under 5.00.
The like results for `COc1cc(-c2cn3ncc4c3nc2NCc2cc(F)cnc2O[C@@H](C)CNC4=O)ccn1` [Compound 5, (S, 1^3E, 1^4E)-4^5-fluoro-1^6-(2-methoxypyridin-4-yl)-6-methyl-5-oxa-2,8-diaza-1(5,3)-pyrazolo[1,5-a]pyrimidin-4(3, 2)-pyridinacyclononaphan-9-one] were, in that order, 6.63 and under 5.00.
In the case of `C[C@H]1CNC(=O)c2cnn3cc(-c4ccccc4F)c(nc23)NCc2cc(F)cnc2O1` [Compound 6, (S, 1^3E, 1^4E)-1^6-(2-fluorophenyl)-4^5-fluoro-6-methyl-5-oxa-2,8-diaza-1(5,3)-pyrazolo[1,5-a]pyrimidina-4(3,2)-pyridinacyclononaphan-9-one], the pIC50 at RET wt is 8.29; on TRKa it was 5.87.
The like results for `C[C@H]1CNC(=O)c2cnn3cc(-c4ccc(F)cc4)c(nc23)NCc2cc(F)cnc2O1` [Compound 8, (S, 1^3E, 1^4E)-1^6-(4-fluorophenyl)-4^5-fluoro-6-methyl-5-oxa-2,8-diaza-1(5,3)-pyrazolo[1,5-a]pyrimidina-4(3,2)-pyridinacyclononaphan-9-one] were, in that order, 7.89 and 5.91.
The like results for `Cc1cccc(-c2cn3ncc4c3nc2NCc2cc(F)cnc2O[C@@H](C)CNC4=O)c1` [Compound 12, (S, 1^3E, 1^4E)-1^6-(3-methylphenyl)-4^5-fluoro-6-methyl-5-oxa-2,8-diaza-1(5,3)-pyrazolo[1,5-a]pyrimidina-4(3,2)-pyridinacyclononaphan-9-one] were, in that order, 7.44 and under 5.00.
The like results for `C[C@H]1CNC(=O)c2cnn3cc(-c4ccc(=O)n(C)c4)c(nc23)NCc2cc(F)cnc2O1` [Compound 20, (S, 1^3E, 1^4E)-4^5-fluoro-6-methyl-1^6-(1-methyl-6-oxo-1,6-dihydropyridin-3-yl)-5-oxa-2,8-diaza-1(5,3)-pyrazolo[1,5-a]pyrimidin-4(3,2)-pyridinacyclononaphan-9-one] were, in that order, under 5.00 and under 5.00.
For the compound `Nc1c(-c2ccccc2)c2nc3c(cnn13)C(=O)NCCOc1ncc(F)cc1CN2` [Example 65, (1^3E, 1^4E)-1^7-amino-4^5-fluoro-1^6-phenyl-5-oxa-2,8-diaza-1(5,3)-pyrazolino[1,5-a]pyrimidin-4(3,2)-pyridinacyclononaphan-9-one], the pIC50 is 8.68 on RET wt, 8.46 at BTK and 8.18 on BTK C481S.
Consider `C[C@H]1CNC(=O)c2cnn3cc(Nc4ccccc4)c(nc23)NCc2cc(F)cnc2O1` [Compound 25, (S, 1^3E, 1^4E)-4^5-fluoro-6-methyl-1^6-phenylamino-5-oxa-2,8-diaza-1(5,3)-pyrazolo[1,5-a]pyrimidina-4(3,2)-pyridinacyclononaphan-9-one], for which the pIC50 was 6.44 at RET wt and under 5.00 at TRKa.
The like results for `Cc1ccccc1-c1cn2ncc3c2nc1NCc1cc(F)cnc1O[C@@H](C)CNC3=O` [Compound 13, (S, 1^3E, 1^4E)-1^6-(2-methylphenyl)-4^5-fluoro-6-methyl-5-oxa-2,8-diaza-1(5,3)-pyrazolo[1,5-a]pyrimidina-4(3,2)-pyridinacyclononaphan-9-one] were, in that order, 8.28 and under 5.00.
In the same order, the values of `C[C@H]1CNC(=O)c2cnn3cc(-c4ccccc4)c(nc23)N[C@H](C)c2cc(F)cnc2O1` [Compound 26, (1^3E, 1^4E, 3R, 6S)-4^5-fluoro-3,6-dimethyl-1^6-phenyl-5-oxa-2,8-diaza-1(5,3)-pyrazolo[1,5-a]pyrimidin-4(3,2)-pyridinacyclononaphan-9-one] are 8.05 and under 5.00.

A word on the pIC50: it is the IC50 on a negative log10 scale, so that one unit is a factor of ten.
